Experimental data taken from patent US20070264679A1, “Method for analyzing the activity of lipoxygenase using a water-soluble substrate” (Chungnam National University Industry Collaboration …, priority 2006, published 2007).

What was measured:
[1] = molecular target: T1, soybean LOX-1 (Glycine max, UniProt P08170); test: Kinetics of oxygenation of arachidonic acid or arachidonoyl-lysophospholipids by soybean LOX-1; type: biochemical; settings: soybean LOX-1 2.5 units/ml, 50 mM borax buffer pH 9.0; unit = one nanomole conjugated diene per min
T1 construct: purchased Sigma-Aldrich Corp (St. Louis, Mo., USA) lipoxidase Type I-B
T1 sequence (P08170 1-839): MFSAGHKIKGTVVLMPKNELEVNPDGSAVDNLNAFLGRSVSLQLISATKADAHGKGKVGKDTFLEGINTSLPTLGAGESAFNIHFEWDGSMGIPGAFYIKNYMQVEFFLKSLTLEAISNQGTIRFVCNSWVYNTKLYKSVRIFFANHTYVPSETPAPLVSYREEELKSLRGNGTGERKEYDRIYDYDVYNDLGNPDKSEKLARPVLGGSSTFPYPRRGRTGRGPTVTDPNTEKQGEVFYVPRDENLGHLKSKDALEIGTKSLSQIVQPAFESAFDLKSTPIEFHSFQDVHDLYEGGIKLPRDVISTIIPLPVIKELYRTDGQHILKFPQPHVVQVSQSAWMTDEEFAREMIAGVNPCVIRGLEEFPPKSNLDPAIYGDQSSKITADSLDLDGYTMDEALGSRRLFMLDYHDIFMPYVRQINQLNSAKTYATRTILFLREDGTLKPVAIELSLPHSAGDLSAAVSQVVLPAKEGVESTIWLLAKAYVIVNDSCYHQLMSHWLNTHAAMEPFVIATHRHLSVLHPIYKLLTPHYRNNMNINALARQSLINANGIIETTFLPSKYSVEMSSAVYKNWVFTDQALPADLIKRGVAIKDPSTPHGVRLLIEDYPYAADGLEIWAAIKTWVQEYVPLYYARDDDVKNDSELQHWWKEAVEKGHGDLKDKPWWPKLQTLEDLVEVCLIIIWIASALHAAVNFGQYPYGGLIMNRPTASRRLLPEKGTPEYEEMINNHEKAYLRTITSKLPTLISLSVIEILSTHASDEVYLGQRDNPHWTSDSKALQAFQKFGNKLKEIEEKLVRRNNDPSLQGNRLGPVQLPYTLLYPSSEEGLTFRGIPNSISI
Experimental: (§1) Activities of various LOXs were monitored by measuring the increase in absorbance at 234 nm due to the formation of hydroperoxide (ε234=25,000 M^−1 cm^−1) at 25° C. as described before (Smith et al, J. Biol. Chem. 247 (1972) 1038-1047). One unit is defined as the amount of LOXs that can produce one nanomole of conjugated diene per min. The reaction mixture (500 μl) included reticulocyte LOX (2 units/ml) in 50 mM phosphate buffer (pH 7.4), porcine leukocyte LOX (1 unit/ml) in 100 mM phosphate buffer (pH 7.5) containing 5 mM EDTA and 0.03% Tween 20, or soybean LOX-1 (2.5 units/ml) in 50 mM borax buffer (pH 9.0) at 25° C. The reactions were started by including each substrate (100 μM) into the above reaction mixture.
(§2) Reticulocyte LOX (2 units/ml), leukocyte LOX (1 units/ml) or soybean LOX-1 (2.5 units/ml) was incubated with each arachidonoyl derivative substrate of various concentrations as described above. The values of kinetic parameters were obtained according to Lineweaver Burke plot analyses as described before (Barroso et al, J. Chromatogr. B. Analyt. Technol. Biomed. Life. Sci. 814 (2005) 21-28).

[2] = molecular target: T2, Leukocyte 12-lipoxygenase (leukocyte LOX) (Sus scrofa, UniProt P16469); test: Kinetics of oxygenation of arachidonic acid or arachidonoyl-lysophospholipids by leukocyte LOX; type: biochemical, porcine; settings: leukocyte LOX 1 unit/ml, 100 mM phosphate buffer pH 7.5, 5 mM EDTA, 0.03% Tween 20
T2 construct: purchased Cayman Chemical Co. (Ann Arbor, Mich., USA)
T2 sequence (P16469 1-663): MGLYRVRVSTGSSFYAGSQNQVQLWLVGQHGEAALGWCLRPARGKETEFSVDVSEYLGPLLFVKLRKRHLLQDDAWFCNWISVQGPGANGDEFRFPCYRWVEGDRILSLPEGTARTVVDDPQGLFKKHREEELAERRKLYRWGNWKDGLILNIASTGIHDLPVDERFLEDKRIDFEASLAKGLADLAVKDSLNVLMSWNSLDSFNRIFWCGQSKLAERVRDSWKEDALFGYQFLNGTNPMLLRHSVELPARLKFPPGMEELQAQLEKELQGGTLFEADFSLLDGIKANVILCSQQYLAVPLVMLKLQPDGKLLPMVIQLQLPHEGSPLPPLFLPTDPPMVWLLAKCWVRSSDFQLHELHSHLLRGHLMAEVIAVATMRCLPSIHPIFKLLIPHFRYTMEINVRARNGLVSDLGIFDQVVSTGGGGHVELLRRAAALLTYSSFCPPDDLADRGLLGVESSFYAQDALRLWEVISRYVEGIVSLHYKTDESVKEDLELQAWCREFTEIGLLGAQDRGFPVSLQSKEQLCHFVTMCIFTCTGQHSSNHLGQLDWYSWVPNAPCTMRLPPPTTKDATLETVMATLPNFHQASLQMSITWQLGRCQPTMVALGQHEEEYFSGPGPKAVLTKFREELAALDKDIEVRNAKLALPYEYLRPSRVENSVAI
Experimental: as §1, §2

[3] = molecular target: T1, soybean LOX-1; test: Kinetics of oxygenation of docosahexaenoic acid derivatives by soybean LOX-1; type: biochemical; settings: soybean LOX-1 2.5 units/ml, 50 mM borax buffer pH 9.0, 25° C.
Experimental: Soybean LOX-1 (2.5 units/ml) was incubated with docosahexaenoyl-lysoPC, didocosahexaenoyl-lysoPC or docosahexaenoic acid of various concentrations in 500 μl of 50 mM borax buffer (pH 9.0) at 25° C. Values were expressed as means ±S.D. of results from at least three independent experiments.

[4] = molecular target: T3, Reticulocyte LOX (Oryctolagus cuniculus, UniProt P12530); test: Kinetics of oxygenation of linoleoylated substrates by reticulocyte LOX; type: biochemical, Rabbit; settings: reticulocyte LOX 8.2 units/ml, 50 mM phosphate buffer pH 7.4, 25° C.; for Km: substrate 3-100 μM
T3 construct: purchased Biomol Inc. (Plymouth Meeting, Pa., USA)
T3 sequence (P12530 1-663): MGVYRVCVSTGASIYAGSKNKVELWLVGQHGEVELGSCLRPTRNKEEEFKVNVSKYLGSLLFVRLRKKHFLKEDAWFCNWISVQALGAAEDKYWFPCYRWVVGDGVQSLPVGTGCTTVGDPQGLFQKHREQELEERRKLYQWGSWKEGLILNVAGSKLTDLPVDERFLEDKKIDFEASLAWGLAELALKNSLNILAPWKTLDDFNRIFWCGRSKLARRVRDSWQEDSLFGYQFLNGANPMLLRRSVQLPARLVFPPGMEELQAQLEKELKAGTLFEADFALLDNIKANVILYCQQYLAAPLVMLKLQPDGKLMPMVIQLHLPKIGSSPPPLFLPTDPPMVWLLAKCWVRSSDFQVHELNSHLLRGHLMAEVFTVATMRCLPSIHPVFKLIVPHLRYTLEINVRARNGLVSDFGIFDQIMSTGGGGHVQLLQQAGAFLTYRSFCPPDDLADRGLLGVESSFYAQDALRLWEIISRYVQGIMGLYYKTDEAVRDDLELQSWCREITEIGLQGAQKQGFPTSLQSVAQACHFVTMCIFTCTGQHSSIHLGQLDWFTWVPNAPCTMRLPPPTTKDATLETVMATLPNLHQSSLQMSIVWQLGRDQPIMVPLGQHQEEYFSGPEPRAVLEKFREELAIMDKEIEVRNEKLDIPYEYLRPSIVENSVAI
Excerpt: (§3) Data were expressed as means ±S.D. of results from at least three independent experiments.

[5] = molecular target: T4, Porcine leukocyte LOX (Sus scrofa, UniProt P16469); test: Kinetics of oxygenation of linoleoylated substrates by leukocyte LOX; type: biochemical; settings: porcine leukocyte LOX 1.5 units/ml, 100 mM phosphate buffer pH 7.5, 5 mM EDTA
T4 construct: purchased Cayman Chemical Co. (Ann Arbor, Mich., USA)
T4 sequence (P16469 1-663): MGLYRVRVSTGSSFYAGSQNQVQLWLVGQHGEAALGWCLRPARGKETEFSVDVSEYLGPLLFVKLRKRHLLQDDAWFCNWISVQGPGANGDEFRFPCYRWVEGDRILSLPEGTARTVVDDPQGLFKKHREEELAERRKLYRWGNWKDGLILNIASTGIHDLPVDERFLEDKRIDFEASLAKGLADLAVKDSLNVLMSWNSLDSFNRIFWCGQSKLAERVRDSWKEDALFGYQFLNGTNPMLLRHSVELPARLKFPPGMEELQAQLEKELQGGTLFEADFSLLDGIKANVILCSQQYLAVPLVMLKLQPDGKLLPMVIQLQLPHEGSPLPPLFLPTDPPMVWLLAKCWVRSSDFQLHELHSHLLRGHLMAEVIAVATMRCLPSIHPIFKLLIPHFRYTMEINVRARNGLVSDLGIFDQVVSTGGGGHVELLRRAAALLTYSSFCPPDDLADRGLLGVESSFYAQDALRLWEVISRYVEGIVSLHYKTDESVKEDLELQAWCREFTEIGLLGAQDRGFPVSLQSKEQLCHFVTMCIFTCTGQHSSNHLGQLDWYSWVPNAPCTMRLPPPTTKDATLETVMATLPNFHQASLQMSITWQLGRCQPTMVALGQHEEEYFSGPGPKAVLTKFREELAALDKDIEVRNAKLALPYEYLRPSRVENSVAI
Excerpt: as §3

[6] = substrate: CCCCC/C=C\C/C=C\C/C=C\C/C=C\CCCC(=O)O; test: Kinetics of oxygenation of arachidonic acid or arachidonoyl-lysophospholipids by leukocyte LOX; type: biochemical, porcine; settings: other: leukocyte LOX 1 unit/ml, 100 mM phosphate buffer pH 7.5, 5 mM EDTA, 0.03% Tween 20, 25° C.
Experimental: as §1, §2

[7] = substrate: CC/C=C\C/C=C\C/C=C\C/C=C\C/C=C\C/C=C\CCC(=O)O; test: Kinetics of oxygenation of docosahexaenoyl-lysoPC or docosahexaenoic acid by leukocyte LOX; type: biochemical; settings: other: porcine leukocyte LOX 2 units/ml, 100 mM phosphate buffer pH 7.4, 5 mM EDTA, 0.03% Tween 20, 25° C.
Experimental: Porcine leukocyte LOX (2 units/ml) was incubated with each substrate docosahexaenoyl-lysoPC or docosahexaenoic acid of various concentrations in 500 μl of 100 mM phosphate buffer (pH 7.4) containing 5 mM EDTA and 0.03% Tween 20 at 25° C.

## CCCCC/C=C\C/C=C\C/C=C\C/C=C\CCCC(=O)O [Arachidonic acid, arachidonic acid]
[1]
  Vm: 92.2 units/μg
[2]
  Vm: 63.2 units/mg

## didocosahexaenenoyl phosphatidylcholine [Didocosahexaenoyl-PC]
[3]
  Km: 1070 ± 184 µM
  Vm: 7.8 ± 0.3 units/μg

## CCCCC/C=C\C/C=C\CCCCCCCC(=O)OCC(O)COP(=O)(O)O (stereo not shown) [Linoleoyl-lysoPA]
[4]
  Vm: 443 ± 9 units/mg
  Km: 8.3 ± 0.6 µM
[5]; 0.03% Tween 20
  Vm: 30.7 ± 0.78 units/mg
[5]; substrate 3-100 μM, 0.03% Tween 20, 25° C.
  Km: 35.5 ± 3.77 µM

## CCCCC/C=C\C/C=C\CCCCCCCC(=O)OC[C@H](COP(=O)(O)O)OC(=O)CCCCCCC/C=C\C/C=C\CCCCC [Dilinoleoyl-PA]
[4]
  Vm: 1029 ± 22 units/mg
  Km: 90 ± 7.3 µM

B1: Leukocyte 12-lipoxygenase (leukocyte LOX) (Sus scrofa) (protein)
chain: MGLYRVRVSTGSSFYAGSQNQVQLWLVGQHGEAALGWCLRPARGKETEFSVDVSEYLGPLLFVKLRKRHLLQDDAWFCNWISVQGPGANGDEFRFPCYRWVEGDRILSLPEGTARTVVDDPQGLFKKHREEELAERRKLYRWGNWKDGLILNIASTGIHDLPVDERFLEDKRIDFEASLAKGLADLAVKDSLNVLMSWNSLDSFNRIFWCGQSKLAERVRDSWKEDALFGYQFLNGTNPMLLRHSVELPARLKFPPGMEELQAQLEKELQGGTLFEADFSLLDGIKANVILCSQQYLAVPLVMLKLQPDGKLLPMVIQLQLPHEGSPLPPLFLPTDPPMVWLLAKCWVRSSDFQLHELHSHLLRGHLMAEVIAVATMRCLPSIHPIFKLLIPHFRYTMEINVRARNGLVSDLGIFDQVVSTGGGGHVELLRRAAALLTYSSFCPPDDLADRGLLGVESSFYAQDALRLWEVISRYVEGIVSLHYKTDESVKEDLELQAWCREFTEIGLLGAQDRGFPVSLQSKEQLCHFVTMCIFTCTGQHSSNHLGQLDWYSWVPNAPCTMRLPPPTTKDATLETVMATLPNFHQASLQMSITWQLGRCQPTMVALGQHEEEYFSGPGPKAVLTKFREELAALDKDIEVRNAKLALPYEYLRPSRVENSVAI
notes: purchased Cayman Chemical Co. (Ann Arbor, Mich., USA)
[6]
  Km: 7.7 µM
  Vmax: 63.2 ± 11.9 units/mg
  Vmax/Km: 8.2 ± 1.5 units/mg/μM

B2: Porcine leukocyte LOX (Sus scrofa) (protein)
chain: MGLYRVRVSTGSSFYAGSQNQVQLWLVGQHGEAALGWCLRPARGKETEFSVDVSEYLGPLLFVKLRKRHLLQDDAWFCNWISVQGPGANGDEFRFPCYRWVEGDRILSLPEGTARTVVDDPQGLFKKHREEELAERRKLYRWGNWKDGLILNIASTGIHDLPVDERFLEDKRIDFEASLAKGLADLAVKDSLNVLMSWNSLDSFNRIFWCGQSKLAERVRDSWKEDALFGYQFLNGTNPMLLRHSVELPARLKFPPGMEELQAQLEKELQGGTLFEADFSLLDGIKANVILCSQQYLAVPLVMLKLQPDGKLLPMVIQLQLPHEGSPLPPLFLPTDPPMVWLLAKCWVRSSDFQLHELHSHLLRGHLMAEVIAVATMRCLPSIHPIFKLLIPHFRYTMEINVRARNGLVSDLGIFDQVVSTGGGGHVELLRRAAALLTYSSFCPPDDLADRGLLGVESSFYAQDALRLWEVISRYVEGIVSLHYKTDESVKEDLELQAWCREFTEIGLLGAQDRGFPVSLQSKEQLCHFVTMCIFTCTGQHSSNHLGQLDWYSWVPNAPCTMRLPPPTTKDATLETVMATLPNFHQASLQMSITWQLGRCQPTMVALGQHEEEYFSGPGPKAVLTKFREELAALDKDIEVRNAKLALPYEYLRPSRVENSVAI
notes: as for B1
[7]
  Km: 17.6 ± 1.7 µM
  Vmax: 35.9 µmol/min/mg
  Vmax/Km: 2.1e+06 µL/min/mg
